Columns and labels:
clinical staphylococci = assay: MIC screening, summary for clinical staphylococci; format: cell-based; settings: range over clinical staphylococci, one strain excepted
Method: (§1) A comparative assessment of the spectrum of antibacterial action was carried out on archival and clinical strains of gram-positive and gram-negative microorganisms in accordance with the [Opredeleniye chuvstvitel'nosti mikroorganizmov k antibakterial'nym preparatam (Metodicheskiye ukazaniya MUK 4.2.1890-04). Utverzhdeny i vvedeny v deystviye Glavnym gosudarstvennym sanitarnym vrachom Rossiyskoy Federatsii G. G. Onishchenko 04.03.2004 g. Determination of the sensitivity of microorganisms to antibacterial drugs (Guidelines MUK 4.2.1890-04). Approved and put into effect by the Chief State Sanitary Doctor of the Russian Federation G. G. Onishchenko on 4 Mar. 2004].
(§2) The value of the minimum inhibitory concentration (MIC) was determined by the method of serial dilutions on Müller-Hinton broth using 96-well sterile plates. […] The growth of cultures was assessed visually, comparing the growth of microorganisms in the presence of test compounds with the growth of culture without them. […] The first lowest concentration of the studied substance (from a series of consecutive dilutions), where bacterial growth is not visually determined, is considered to be the minimum inhibitory concentration (MIC). MIC was determined by the method of serial dilutions in broth with increment=2, so the differences of neighboring dilutions are not considered to be significant. […]

clinical enterococci = assay: MIC screening, summary for clinical enterococci; format: cell-based; settings: range over clinical enterococci
Method: as §1, §2

E. coli in the biofilm = assay: Antibacterial activity against cells immersed in a biofilm matrix (CFU, drop plate); format: cell-based
Method: (§3) To determine the effectiveness of the antibiotic against bacteria in […], bacteria were grown in Basal medium for 3 days at a temperature of 37° C. without swinging to obtain a dense biofilm [A. R Kayumov, Khakimullina E., Sharafutdinov I, Trizna E., Latypova L., Lien Thi, Margulis A., Bogachev M, Kurbangalieva A. Inhibition of biofilm formation in Bacillus subtilis by new halogenated furanoses. J. Antibiotics.—2014.—V. 68.—No 5.—P. 297-301.]. Then the biofilm was washed with a sterile 0.9% NaCl solution and fresh sterile medium was poured. Antiseptics were added to concentrations (1-16)×MBC (minimum bactericidal concentration) and incubated for 24 hours. Then the culture fluid was removed from the wells, washed once with 0.9% NaCl solution to remove non-adherent cells, and cell viability in biofilms was evaluated by counting CFU by Drop plate analysis [B. Herigstad, M Hamilton, J. Heersink How to optimize the drop plate method for enumerating bacteria. J Microbiol Methods.—2001.—V. 44.—P. 121-129]. To do this, the biofilm was mechanically removed from the surface and homogenized in 0.9% NaCl by pipetting and ultrasonic treatment. Then, serial 10-fold dilutions of the bacterial suspension in 0.9% NaCl were prepared, and 5 μI of each suspension were transferred to plates with dense nutrient medium. CFU was counted from drops containing 5-10 colonies.
(§4) The results of the study of antimicrobial activity against cells of the studied strains immersed in the biofilm matrix, in comparison with miramistin and benzalkonium chloride, are presented in FIGS. 1 and 2.

[1] = system: K. pneumonia in the biofilm; assay: as above; format: cell-based
Method: as §3, §4

[2] = system: S.marcescens in the biofilm; assay: as above; format: cell-based
Method: as §3, §4

[3] = Acute toxicity in mice after intragastric administration; format: in vivo; settings: both sexes, mouse, in vivo, po; Mice CD-1, intragastric administration; read-out: LD50 (95% confidence interval)
Method: (§5) The study was performed on mice of the CD-1 (ICR) line (6-8 weeks, weight not less than 18 g) of both sexes. […] Mice administered doses were 3000 mg/kg, 2000 mg/kg, 1000 mg/kg, 500 mg/kg and 50 mg/kg.

[4] = system: mice of the CD-1 (ICR) line; assay: as above; format: in vivo
Method: as §5

[5] = system: Cells of a light cow embryo (LCE); assay: State of the LCE cell monolayer with the drug without the virus; format: cell-based
Method: Cells of a light cow embryo (LCE) are obtained from the Federal State Budgetary Institution “All-Russian Institute of Experimental Veterinary Medicine”, Moscow. Bovine rhinotracheitis virus (herpes virus family), vaccine strain “TK-A (VIEV)-V2” was obtained from the Federal State Budgetary Institution “All-Russian Institute of Experimental Veterinary Medicine”, Moscow.
The virus was incubated in the presence of compound I in a culture medium at 37° C. for one hour at various concentrations; miramistin and benzalkonium chloride served as control preparations. After incubation of the virus with substances, it was added to the cell culture, which was then incubated at 37° C., 5% CO2 for 72 hours.
Evaluation of the cytopathogenic effect was carried out visually by the state of the cell monolayer as compared with the controls (virus without incubation with the drug, the studied drug concentrations without the virus). The virus titer was calculated using the method of Reed-Muench in the modification of Ashmarin and expressed in Ig TCD50/ml.

[6] = both, CD-1 (ICR), mouse, in vivo

Structure (SMILES)	MIC (clinical staphylococci)	MIC for clinical enterococci (clinical enterococci)	activity in the biofilm compared with comparison antiseptics (E. coli in the biofilm)	activity in the biofilm compared with comparison antiseptics [1]	activity in the biofilm compared with comparison antiseptics [2]	LD50 [3]	hazard class in accordance with GOST 12.1.007-76 ([4]; acute toxicity, oral, mice)	toxicity class according to the Globally Harmonized System (GOST 32644-2014) ([4]; acute toxicity, oral, mice)	LD16 [4, 6]	LD86 [4, 6]	Number of died animals in the group ([4]; both, CD-1 (ICR), mouse, in vivo, 50 mg/kg)	Number of died animals in the group ([4]; both, CD-1 (ICR), mouse, in vivo, 500 mg/kg)	Number of died animals in the group ([4]; both, CD-1 (ICR), mouse, in vivo, 1000 mg/kg)	Number of died animals in the group ([4]; both, CD-1 (ICR), mouse, in vivo, 2000 mg/kg)	Number of died animals in the group ([4]; both, CD-1 (ICR), mouse, in vivo, 3000 mg/kg)	destruction of the monolayer, drug without the virus ([5]; 50 μg/ml)	destruction of the monolayer, drug without the virus ([5]; 100 μg/ml)	destruction of the monolayer, drug without the virus ([5]; 150 μg/ml)	destruction of the monolayer, drug without the virus ([5]; 200 μg/ml)
CCCCCCCCCCCC[N+](C)(C)Cc1cnc(C[N+](C)(C)CCCCCCCCCCCC)c2c1COC(CC)O2 (stereo not shown) [Compound I, 5,8-(Bis(methylene (N, N-dimethyl-N-dodecylammonium))-2-ethyl-4H-[1,3]dioxino [4,5-c]pyridiniumdichloride]	1 to 8 µg/mL	0.03 to 4 µg	the same activity as miramistine and benzalconium chloride	the same activity as miramistine and benzalconium chloride	the same activity as miramistine and benzalconium chloride	1710 mg/kg	3rd class of moderately hazardous harmful substances	4th toxicity class	788 mg/kg	2623 mg/kg	0/6	0/6	3/6	5/10	4/4	–	–	–	–
CCCCCCCCCCCCCC(=O)NCCC[N+](C)(C)Cc1ccccc1.O.[Cl-] [Miramistin, benzyldimethyl [3-(myristoylamino)propyl]-ammonium chloride monohydrate]	–	–	–	–	–	–	–	–	–	–	–	–	–	–	–	− (−0-10% destruction of the monolayer)	− (−0-10% destruction of the monolayer)	− (−0-10% destruction of the monolayer)	− (−0-10% destruction of the monolayer)
